The values that follow come from patent publication US5998580A, “Photosensitive caged macromolecules” (priority 1995, dated 1999).

Where no end group is shown, it is not given here. The star is where a group is joined. α‑carboxy 2‑nitrobenzyl = O=C(O)C(c1ccccc1[N+](=O)[O-])*

The subject of experiment [1] is toad stomach smooth muscle cells. The experiment can be described thus: rate of shortening of single smooth muscle cells (calcium-mediated contraction). It is filed as cell-based. The note with it: 200 μM; after photolysis versus without photolysis (FIG. 5). How it is done: The in vivo effects of 1-CAG-RS-20 (200 μM) on the rate of shortening of single smooth muscle cells both before and after UV exposure was performed essentially as described in Itoh et al. (Nature 338: 164-67, 1989). Images of the cells were recorded using phase contrast optics and measurements of cell length were carried out as described by Itoh et al., supra. An interactive computer analysis program was used to measure cell length at successive intervals after the onset of cell membrane depolarization and subsequent increase in cytoplasmic Ca^2+ concentration that normally triggers contraction.

The test system of experiment [2] is Smooth muscle myosin light chain kinase (MLCK). Kind of experiment: inhibition of smooth muscle myosin light chain kinase (MLCK) activity, 32P incorporation into light chain. It is filed as biochemical. The note with it: before photolysis; 100 nM calmodulin. Here is the method: (§1) The standard photolysis protocol involves exposure of caged peptide (0.1 to 1 ml; 0.1 mM to 1 mM in 50 mM Tris pH 7.5) in a quartz cuvette (1 cm path length) to the beam of a continuous 75 watt Xenon arc lamp that is filtered through a 300-350 nm band pass filter (UG-11 filter). This standard in vitro photolysis protocol was carried out for 30 minutes at room temperature.
Smooth muscle myosin light chain kinase (MLCK) (0.5 μg/ml) was incubated with various concentrations of synthetic caged peptide (e.g., 1-CAG-RS-20 and 9-NPG-RS-20) in the presence of 100 nM calmodulin, 0.1 mM CaCl2, 100 mM KCL, 0.2 mg/ml myosin regulatory light chain, 1 mM MgCl2, and 30 mM Tris-HCL (pH 7.5) at 25° C. for 5 minutes. 1-CAG-RS-20 and 9-NPG-RS-20 were photolyzed using the standard photolysis protocol (see above) and the uncaged peptide was purified away from by-products and caged peptides prior to the enzymatic assay using reverse phase HPLC. The phosphorylation reaction was started by adding 50 μM ^32 P-ATP. The incorporation of ^32 P into the light chain was measured by scintillation counter and the inhibitory effect of the peptide on myosin light chain kinase was determined.

Experiment [3] has as its system single smooth muscle cells. Kind of experiment: calcium-dependent enhancement of calcium (inward) current after repetitive depolarization in single smooth muscle cells. It is filed as cell-based. The note with it: cell injected with peptide. How it is done: The in vivo effects of 1-CAG-RS-20 on calcium-dependent enhancement of calcium current in smooth muscle were evaluated according to the methods described by McCarron et al. (Nature 357: 74-77). Photolysis of 1-CAG-RS-20 was accomplished by selectively exposing cells to a beam of UV irradiation using a light source fitted with a controllable shutter. In addition, experiments were carried out by recording phase contrast images in the far red portion of the spectrum to monitor the effects of 1-CAG-RS-20 on the contractile responses of the cells to Ca^2+ influx resulting from depolarization. Data was analyzed according to the methods described in Itoh et al. (Nature 338: 164-167, 1989).
Shown in these panels (FIG. 3) are the inward currents resulting from depolarization both before and after the train of depolarizing pulses. The trace labelled #1 was obtained before the train and that after the train is labelled #2 (FIG. 3C).

A further experiment deals with T1, calmodulin (Homo sapiens, UniProt P0DP23).
T1 construct: purchased Sigma Chemical Co
The experiment can be described thus: binding to calmodulin agarose column before and after photolysis. Here is the method: The 1-CAG-RS-20 was evaluated for its ability to bind a calmodulin agarose column before and after photolysis. This experiment was carried out as follows. 5 mls of calmodulin agarose (Sigma Chemical Co.) was poured into a 1 cm×10 cm glass column and equilibrated with 50 mM Tris pH 7.5, 1 mM CaEGTA, pCa 4.5 (where pCa=-log free […]. 100 nmoles 1CAGRS-20 in 1 ml of the same solution was loaded onto the column and eluted with the same solution while 14×1.5 ml fractions were collected. The elutant was then changed to 50 mM Tris pH 7.5, 1 mM EGTA, pCa 9 and 14×1.5 ml additional fractions were collected. Each fraction was analyzed for peptide by UV absorbance at 272 nm. A second 100 nmole aliquot of 1-CAG-RS-20 was irradiated by the standard photolysis protocol (see below) and loaded onto the calmodulin agarose column after extensive washing and reequilibration in the original pCa 4.5 solution.
as §1

Consider “1-CAG-RS-20: RS-20 caged analog containing caged tyrosine (α-carboxy 2-nitrobenzyl) at position 5 (ARRKY(α‑carboxy 2‑nitrobenzyl)QKTGHAVRAIGRLSS)”, for which the “rate of cell shortening” value in experiment [1] is “shortened more slowly”. For the same substance, in experiment [2], the “inhibition of MLCK activity” value is “failed to significantly inhibit MLCK activity”. The “enhancement of inward current following a train of depolarizing stimuli” value in experiment [3] (following photolysis (FIG. 3D)) is recorded as “blocked”; in experiment [3] (prior to exposure to ultraviolet light (FIG. 3C)) it was “the inward current was enhanced”. In addition, the “binding to calmodulin agarose column” value was “does not bind appreciably” with calmodulin (before photolysis, in the presence of Ca2+ (pCa 4.5), 100 nmoles loaded) and “binds strongly” with calmodulin (following photolysis, in the presence of Ca2+, binding reversed by EGTA).
